What was measured:
[1] = tested on: RPTEC/TERT 1 human proximal tubule cells; assay: CaP-induced CaOx crystallization on RPTEC monolayers; type: cell-based; conditions: 1.2 mM oxalate, 4 h
Method: For the assessment of CaP-induced CaOx crystallization, after 24 h of incubation, Ca/P spiked medium was removed, and cells were washed twice with PBS. Subsequently, medium containing 1.2 mM oxalate and compound was added to each well. After 4 h of incubation at 37° C. and 5% CO2 treatment was removed, and cells washed once with PBS before staining.
For staining, ProxUp basal medium was mixed with calcein (500 nM final concentration), EthD (6 μM final concentration), CellMask stain ([…]) and Hoechst 33342. Staining mixture was added to RPTEC and cells were incubated for 30 min in the dark at 37° C. and 5% CO2. Staining solution was removed, cells were washed with PBS once and ProxUp basal medium was added. Cells were immediately imaged after staining. Images were obtained by epifluorescence microscopy at 37° C., using a Leica CTR6000 microscope. For quantification 3 wells/condition were prepared and 3 images/well were taken. For preliminary adhesion experiments images were taken with a 10× objective, for the imaging assay 20× objective images were taken.

[2] = tested on: C57BL/6 male mice on high phosphate diet; assay: Mouse model of high phosphate-induced kidney damage; type: in vivo; conditions: 100 mg/kg s.c. 3 times/week
Method: C57BL/6 male mice (12 weeks of age) were placed on either regular diet containing 0.35% inorganic phosphate or high phosphate diet containing 2.0% inorganic phosphate. These mice were subcutaneously injected with either (OEG2)2-IP4 (100 mg/kg) or vehicle (distilled water) three times a week and then sacrificed at 20 weeks of age to harvest their blood and kidneys. Some mice were transferred individually to metabolic cages to collect urine for 3 days before sacrifice. Serum FGF23 levels were measured using intact FGF23 ELISA (Kinos) according to the manufacturers' protocols. Serum and urine levels of phosphate were measured using Fuji Dri-Chem slides and the analyzer (Dri-Chem NX500V, Fuji, Tokyo, Japan). […] Quantitative RT-PCR reactions were performed using 20 ng of cDNA incubated with 410 nM of each primer and 6 μL of SYBR Green PCR Master mix (Toyoba, Osaka, Japan THUNDERBIRD SYBR qPCR Mix QPS-201) in a total volume of 12 μl. […] Relative mRNA levels were calculated by the comparative threshold cycle method using cyclophilin as an internal control. […] The collagen volume fraction (the ratio of the Sirius Red-positive area to the total area) was quantified using an image analysis software (IMAGE PRO 9.32, Medica Cybernetics, Rockville, MD, USA) as previously described (Hirano, Y. Kurosu et al., FEBS Open Bio. 10, 894-903. DOI:10.1002/2211-5463.1284, 2020). […]

[3] = previous study (Kletzmayr et al. 2020); cited from earlier work
[4] = In-solution screening: CaP precipitation and aggregation in artificial renal tubular fluid (RTF); conditions: 9 mM phosphate, 8 mM calcium, 4 h, RT
Method: An artificial renal tubular fluid (RTF) with a final composition of 0.05 mM oxalate, 0.005 mM sulphate, 408 mM sodium, 424 mM chloride, 0.26 mM potassium, 4 mM magnesium and 0.2 mM citrate in double distilled water was prepared according to a literature report (Fasano, J. M. et al., Kidney Int. 59, 169-178. DOI: 10.1046/j.1523-1755.2001.00477.x, 2001). The solution was filtered with a 0.45-μm syringe filter. Twenty mM Bis-Tris buffer was added to the reported protocol to ensure pH stability throughout experiments and pH was set to 7.2. The artificial RTF was stored at room temperature for up to four months. Stock solutions of 0.25 M phosphate and 1 M calcium were prepared in double distilled water and were stored separately at −20° C.
Twenty-x final concentration phosphate, 20× final concentration calcium and 10× final concentration compound dilutions were prepared in RTF. Assay mixture consisting of 80% RTF, 10% compound dilution, 5% phosphate dilution and 5% calcium dilution was prepared in Eppendorf tubes as follows. RTF (320 μL) was mixed with 20 μL phosphate dilution (final concentration of 9 mM), 40 μL compound dilution and 20 μL calcium dilution (final concentration of 8 mM). The assay mixture was vortexed after adding each component and 380 μL of the mixture were immediately added to 8-well glass bottom slides and incubated for 4 hat RT. CaP precipitation was assessed using a Leica DM 6000B microscope (Leica Microsystems, Wetzlar, Germany) in brightfield mode. For quantification 3 wells/condition with 3-4 images/well were imaged with a 40× objective. The total area covered with CaP deposits in percentage of the field of view and the mean size of CaP aggregates were determined.
In a first step, the influence of selected IP6 analogues (FIG. 3) on CaP precipitation and growth was assessed in vitro using artificial renal tubular fluid (RTF) (Table 1). In a previous study, the inventors investigated CaP protein particle formation in serum. However, an important difference to cardiovascular calcification lies in the extremely low protein content of the renal tubular fluid vs. the high abundance of proteins in blood, which can stabilize amorphous particles. Two cut-offs were chosen for assessing efficacy. First, complete inhibition was defined as a >90% reduction of detected CaP precipitates compared to the control sample without compound.

COCCOCCO[C@@H]1C(OP(=O)(O)O)[C@H](OCCOCCOC)[C@@H](OP(=O)(O)O)C(OP(=O)(O)O)[C@H]1OP(=O)(O)O (stereo partly drawn) [(OEG2)2-IP4]
calcium oxalate dihydrate (COD) in CaP-induced CaOx crystallization ([1]; 100 μM compound): almost entirely abolished
CaOx crystal form in CaP-induced CaOx crystallization ([1]; after 24 h Ca/P, dose-dependent): revert CaOx crystallization from calcium oxalate monohydrate (COM), the predominant most stable form, to calcium oxalate dihydrate (COD)
collagen volume fraction (fibrosis), Picro-Sirius red staining of the kidneys, vs vehicle [2]: reduced
kidney damage and fibrosis markers (Spp1, IL36a, Ngal, MMP3, Col1a1 mRNA in kidney) vs vehicle control [2]: significantly reduced
efficacy on CaOx crystallization in solution [3]: limited efficacy
effect on CaP precipitation / crystallization (in words) [4]: did not further increase the inhibitory activity
